Test results taken from ChEMBL document CHEMBL1132844, “Assessment of substitution in the second pharmacophore of Dmt-Tic analogues” (Bioorg Med Chem Lett, 2000).
The source made the active and inactive calls. The calls are words filed in the database; no cut-off is given here. Square brackets hold non-standard residues; d marks the D form. Peptide text beside a SMILES is read from it. ξ: configuration not given here. Dmt = Cc1cc(O)cc(C)c1C[C@H](N)C(=O)O; ξTic = O=C(O)C1Cc2ccccc2CN1

Experiments:
Mu-type opioid receptor [1] = target: T1, Mu-type opioid receptor (Cavia porcellus, UniProt P97266); experiment: Negative logarithm of the molar concentration for agonist activity at mu receptor was determined in guinea pig ileum; type: functional, tissue-based
T1 sequence (P97266 whole entry): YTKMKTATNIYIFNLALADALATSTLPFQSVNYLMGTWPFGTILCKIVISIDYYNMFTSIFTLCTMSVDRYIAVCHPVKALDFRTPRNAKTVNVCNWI

[2] = target: Delta-type opioid receptor (Mus musculus) (UniProt P32300)
Chain of Delta-type opioid receptor (Mus musculus) (P32300 whole entry): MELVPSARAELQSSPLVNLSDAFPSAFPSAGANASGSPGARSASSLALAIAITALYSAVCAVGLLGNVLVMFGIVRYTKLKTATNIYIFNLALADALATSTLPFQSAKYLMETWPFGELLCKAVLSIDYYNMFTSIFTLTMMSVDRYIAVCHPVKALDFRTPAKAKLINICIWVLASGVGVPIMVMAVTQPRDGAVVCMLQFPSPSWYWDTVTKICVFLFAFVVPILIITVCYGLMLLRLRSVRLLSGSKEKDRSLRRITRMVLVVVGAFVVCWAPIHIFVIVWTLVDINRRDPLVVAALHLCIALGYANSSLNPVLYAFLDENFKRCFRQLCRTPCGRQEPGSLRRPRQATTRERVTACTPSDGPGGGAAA

[3] = target: T2, Delta-type opioid receptor (Mus musculus, UniProt P32300); experiment: (§1) Negative logarithm of the molar concentration of delta receptor was determined in mouse vas deferens; details: read-out: pA2 (converted)
T2 sequence (P32300 whole entry): as above

[4] = target: Delta-type opioid receptor (Mus musculus) (UniProt P32300); experiment: Negative logarithm of the molar concentration of delta receptor was determined in mouse vas deferens; i represents inactivity up to 1 mM; type: functional
[5] = target: T2, Delta-type opioid receptor; experiment: as §1; type: functional; details: read-out: pA2 (converted)
Mu-type opioid receptor [6] = target: T1, Mu-type opioid receptor; experiment: Negative logarithm of the molar concentration for agonist activity at Opioid receptor mu 1 was determined in guinea pig ileum; type: functional, tissue-based

SMILES	EC50 (Mu-type opioid receptor [1])	Log EC50 [2]	Kb [3]	Log EC50 [4]	Kb [5]	EC50 (Mu-type opioid receptor [6])
Cc1cc(O)cc(C)c1C[C@H](N)C(=O)N1Cc2ccccc2CC1COCc1ccccc1 (some centres undefined)	525 nM	inactive	13.5 nM	–	–	–
Cc1cc(O)cc(C)c1C[C@H](N)C(=O)N1CCc2ccc(F)cc2C1	631 nM	inactive	617 nM	–	–	–
Cc1cc(O)cc(C)c1C[C@H](N)C(=O)N1CCc2ccccc2C1	490 nM	–	38.9 nM	inactive	–	–
Cc1cc(O)cc(C)c1C[C@H](N)C(=O)N1Cc2ccccc2CC1C(N)=O (some centres undefined) (H-[Dmt]-[ξTic]-NH2)	–	–	–	inactive	63.1 nM	> 10 µM
Cc1cc(O)cc(C)c1C[C@H](N)C(=O)N1Cc2ccc(F)cc2CC1C(=O)O (some centres undefined)	813 nM	inactive	35.5 nM	–	–	–
Cc1cc(O)cc(C)c1C[C@H](N)C(=O)N1Cc2ccccc2CC1CO (some centres undefined)	–	–	–	inactive	100 nM	> 10 µM
C[C@@H](NC(=O)[C@@H](N)Cc1ccc(O)cc1)C(=O)N[C@@H](Cc1ccccc1)C(=O)NCC(=O)N[C@@H](Cc1ccc(O)cc1)C(=O)N1CCC[C@H]1C(=O)N[C@@H](CO)C(N)=O [DERMORPHIN]	1.58 nM	–	–	–	–	–
